Experimental findings from paper PMC12699035, “Exploring market-approved azoles as potential breast cancer therapeutics targeting the VEGFR-2 biotarget” (Scientific Reports, 2025) are described below.

For assay [1], the system named is Solid Ehrlich Carcinoma (SEC). The assay is described as follows: In vivo anti-tumor activity in solid Ehrlich carcinoma (SEC)-bearing mice (tumor mass, volume, TIR%, hematology, histopathology). On the procedure:
All experimental protocols were approved by the Research Ethics Committee and Institutional Animal Care and Use Committee, Faculty of Science, Suez Canal University with the ethical code (SCU-Sci-REC439/2025), and all methods were carried out according to the European Union guidelines and in accordance with ARRIVE guidelines. All animals were anesthetized using a combination of Xylazine 10 mg/kg- Ketamine 100 mg/kg of body weight, respectively, prior sacrifice via cervical decapitation.
In all graphs, treatments were administrated intraperitoneal (IP) with 6 mg/Kg B.Wt. for two weeks, day after day.
SIT, FLU and TNZ were tested using the five dose sigmoidal curves to determine the IC50 values. They were tested for the VEGFR2 inhibition using VEGFR2 Kinase Inhibition Assay Kit Catalog # 40325 BPS Bioscience, San Diego, CA. […] At the end of these experiment, anti-tumor potentiality was recorded using tumor weight (mg), tumor volume (mm^3), and the tumor inhibition ratio (TIR%). Hematological parameters of Hemoglobin (Hb, g/dL), RBC’s count (10^6/μL), and WBC’s count (10^3/μL) were investigated, along with histopathological and immunohistochemical staining of the VEGR2 protein.
Adult female Swiss albino mice purchased from Faculty of Pharmacy, Suez Canal University, Ismailia, Egypt, with an average body weight of (18-23) g was used. Mice were housed under constant conditions of 12 h light/dark cycle in a […], with free access to standard laboratory mice food and water. All procedures related to care and maintenance of the animals were performed according to the international guiding principles for animal research and approved by the Faculty of Pharmacy, Suez Canal University bioethics and animal ethics committee.
Solid Ehrlich carcinoma (SEC) was got from the National Cancer Institute (Cairo University, Egypt). The tumor cell line proliferated in mice through serial intraperitoneal (I.P.) transplantation of a volume of 0.2 mL physiological saline containing 1×10^6 viable cells for 24 h. SEC cells were collected 7 days after I.P. implantation. The harvested cells were diluted with saline to obtain a concentration of 5×10^6 viable SEC cells/mL. A volume of 0.2 mL saline contains 1×10^6 SEC cells that were I.P. implanted into each normal mouse. SEC cells (1×10^6 tumor cells/mouse) were implanted subcutaneously into the right thigh of the hind limb.
The experimental animals were randomly divided into four groups. Group 1 served as the normal saline control. Group 2 served as the SEC control (1×10^6 cells/mouse). Group 3 served as the ITR-treated group (6 mg/kg B.Wt., I.P.). […] Body weight and survival were recorded daily until the 24th day in both treated and control groups. At the end of the experiment, anesthetized animals were then sacrificed for evaluation of the antitumor activity and histopathological examination.
It includes tumor volume, weight, and tumor inhibition ratio (TIR%). Time interval measurements of tumor volume using a digital Vernier caliper (Tricle Brand, Shanghai, China). Measure tumor length and width using a clipper and then calculate tumor volume using formulations V = (L x W x W)/2, where V is tumor volume, W is tumor width, L is tumor length. While TIR% was calculated according to the following equation Tumor volume Control-Tumor volume (treated)Tumor volume (control)x 100.
Specimens of liver-sacrificed mice were fixed in 10% saline formalin. The fixed liver specimens were Dehydrated in ascending series of ethyl alcohol and embedded in paraffin.

In assay [2] the test system is MCF-10A cells. As to the kind of experiment: Cytotoxicity against MCF-10A cells, MTT assay (five doses). Conditions: Homo sapiens, MCF-10A normal cells, five dose concentrations, n = 3, read-out: MCF-10A IC50 ± SD. The assay is classed as cell-based. A general note: Tetrazolium assays rely on reduction of a dye to a coloured formazan, in cell work by metabolically active cells.

`CCC(C)n1ncn(-c2ccc(N3CCN(c4ccc(OCC5COC(Cn6cncn6)(c6ccc(Cl)cc6Cl)O5)cc4)CC3)cc2)c1=O` (centres unmarked) [Itraconazole, itraconazole]: the solid tumor mass in assay [1] (6 mg/Kg B.Wt. IP, two weeks, day after day, SEC control 469 mg) came out at 237 mg. Further, in assay [1] (6 mg/Kg B.Wt. IP, two weeks, day after day, SEC control 420 mm^3), the tumor volume came out at 221 mm^3. Moreover, in assay [1] (6 mg/Kg B.Wt. IP, two weeks, day after day, TIR% = C − T/C × 100), the “Tumor inhibition ratio (TIR%)” value is recorded as 47.4%. Further, the “WBC's count” value in assay [1] (6 mg/Kg IP, normal 5, SEC control 9.2) is given as 6.7 10^3/µL. For the same molecule, the “RBC's count” value in assay [1] (6 mg/Kg IP, normal 6.9, SEC control 3.1) is listed as 5.1 10^6/µL. In addition, in assay [1] (6 mg/Kg IP, normal 11.6, SEC control 4.6), the Hemoglobin level is given as 6.8 g/dL. The “Tumor cell density (histopathology of SEC mass)” value in assay [1] (isolated tumor mass, SEC control 2.2 cm^2) was determined as 1.2 cm^2. Besides, the half-inhibitory concentration (IC50) in assay [2] was 49.6 ± 2.5 µM.

The IC50 is the concentration needed to halve the response being measured.
